# Measured values taken from US8349791B2, “Polypeptides that bind membrane proteins” (The Trustees of the University of Pennsylvania, priority 2006, dated 2013).
# Peptide text beside a SMILES is read from it.
# Legend:
# α2 TM domain = target: T1, α2 TM domain (Homo sapiens, UniProt P17301); test: DN-TOXCAT heterodimerization; type: cell-based; conditions: coexpressed in bacterial membranes
# T1 construct: expressed in transfected cells; host or cells: E. coli MM39, pDNToxR-Duet
# Method: (§1) Both the affinity and specificity of the membrane protein-binding peptides for their targets when coexpressed in bacterial membranes were assessed with a DN-“TOXCAT” assay (FIGS. 3a-3c). In TOXCAT, a TM sequence of interest is fused to a ToxR protein (TM-ToxR) that binds to the ctx promoter as a dimer, which induces expression of chloramphenicol acetyltransferase (CAT) (W. P. Russ, D. M. Engelman, Proc. Natl. Acad. Sci. U.S.A. 96, 863 (1999); D. Langosch, B. Brosig, H. Kolmar, H. J. Fritz, J. Mol. Biol. 263, 525 (1996)). In the DN assay, the TM1-ToxR fusion protein is coexpressed with a second fusion protein (TM2-ToxR*) containing a nonfunctional mutant of the ToxR domain. TM-driven dimerization leads to a ToxR-ToxR* dimer that is unable to bind the ctx promoter or to induce CAT synthesis (FIG. 3a). The resulting decrease in CAT activity can be used to monitor the formation of a heterodimeric TM complex. In principle, this assay could be accomplished by adding an exogenous synthetic peptide (D. Gerber, N. Sal-Man, Y. Shai, J. Mol. Biol. 339, 243 (2004)); however, it is difficult to assure that different peptides will be similarly inserted into the Escherichia coli inner membrane.
# (§2) For testing the specificity of the designed membrane protein-binding polypeptide sequences against the integrin TM domains, the designed sequences (anti-αIIb and anti-αV) were cloned into MCS1 of the Duet vector and the integrin TM domains into MCS2 of the Duet vector. In this configuration, the integrin TMs compete for the homodimers formed by the polypeptide sequences, with the decrease in CAT signal proportional to the extent of heterodimerization between a given integrin TM and polypeptide sequence relative to the homodimerization of the polypeptide sequence.
# (§3) Single MM39 colonies containing pDNToxR-Duet constructs from selective plates were chosen, inoculated in 5 mL of LB medium containing 100 μg/mL ampicillin and grown to an OD600 of 0.2 at 37° C. with vigorous shaking. IPTG was added to the medium at a final concentration of 0.1 mM IPTG and grown to an OD600 of 0.7. Purification, immunoblotting, CAT ELISA and MalE complementation assays are essentially as described previously. Li, R., Gorelik, R., Nanda, V., Law, P. B., Lear, J. D., DeGrado, W. F. and Bennett, J. S. J. Biol. Chem. 2004, 279, 26666-26673 (2004). For immunoblotting, anti-MBP (NEB) was used for pccKAN (TOXCAT) constructs, whereas anti-myc (Covance) and anti-HA (Covance) were used for pDNToxR-Duet constructs. CAT ELISA results are an average of 3 independent replicates.
# β3 TM domain = target: T2, β3 TM domain (Homo sapiens, UniProt P05106); test: DN-TOXCAT heterodimerization; type: cell-based; conditions: coexpressed in bacterial membranes
# T2 construct: expressed in transfected cells; host or cells: E. coli MM39, pDNToxR-Duet
# T2 sequence (P05106 with tags, fused parts or gaps limits assumed): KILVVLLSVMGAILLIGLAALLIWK
# Method: as §1, §2, §3
# β1 TM domain = target: T3, β1 TM domain (Homo sapiens, UniProt P05556); test: DN-TOXCAT heterodimerization; type: cell-based; conditions: coexpressed in bacterial membranes
# T3 construct: expressed in transfected cells; host or cells: E. coli MM39, pDNToxR-Duet
# T3 sequence (P05556 with tags, fused parts or gaps limits assumed): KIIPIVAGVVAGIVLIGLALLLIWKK
# Method: as §1, §2, §3
# [1] = test system: gel-filtered human platelets; test: Platelet aggregation, turbidometric; type: cell-based
# Method: Platelet-rich plasma, prepared from human blood anti-coagulated with 0.1 volume of 0.13 M sodium citrate, was gel-filtered on Sepharose 2B (Amersham Biosciences, Piscataway, N.J.) using an elution buffer containing 137 mM NaCl, 2.7 mM KCl, 1 mM MgCl2, 5.6 mM glucose, 0.35 mg/ml bovine serum albumin, 3.3 mM NaH2PO4, and 4 mM HEPES (pH=7.4), as previously described. Jordan P et al. Nature 411, 909-917 (2001). Turbidometric measurements of platelet aggregation were performed in a Chrono-Log Lumi-Dual Aggregometer. Aliquots (0.4 ml) of the gel-filtered platelet suspension were supplemented with 200 μg/ml human fibrinogen (Enzyme Research Labs., South Bend, Ind.) and 1 mM CaCl2 (final concentrations) prior to adding platelet agonists. The polypeptide was added from a DMSO solution such that the final concentration of DMSO was no greater than 0.5%. All controls also had 0.5% DMSO in the buffer.
# αIIb TM domain = target: T4, αIIb TM domain (Homo sapiens, UniProt P08514); test: DN-TOXCAT heterodimerization; type: cell-based; conditions: coexpressed in bacterial membranes
# T4 construct: expressed in transfected cells; host or cells: E. coli MM39, pDNToxR-Duet
# T4 sequence (P08514 with tags, fused parts or gaps limits assumed): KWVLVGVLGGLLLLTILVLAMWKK
# Method: Both the affinity and specificity of the membrane protein-binding peptides for their targets when coexpressed in bacterial membranes were assessed with a DN-“TOXCAT” assay (FIGS. 3a-3c). In TOXCAT, a TM sequence of interest is fused to a ToxR protein (TM-ToxR) that binds to the ctx promoter as a dimer, which induces expression of chloramphenicol acetyltransferase (CAT) (W. P. Russ, D. M. Engelman, Proc. Natl. Acad. Sci. U.S.A. 96, 863 (1999); D. Langosch, B. Brosig, H. Kolmar, H. J. Fritz, J. Mol. Biol. 263, 525 (1996)). In the DN assay, the TM1-ToxR fusion protein is coexpressed with a second fusion protein (TM2-ToxR*) containing a nonfunctional mutant of the ToxR domain. TM-driven dimerization leads to a ToxR-ToxR* dimer that is unable to bind the ctx promoter or to induce CAT synthesis (FIG. 3a). The resulting decrease in CAT activity can be used to monitor the formation of a heterodimeric TM complex. […]
# Mutants were generated using the QuikChange site-directed mutagenesis kit (Stratagene). […] In order to quantify the effects of mutations to anti-αIIb on the change in heterodimerization relative to wild-type anti-αIIb, a disruption index (or % disruption of heterodimerization) was calculated from the data as follows: […]
# FITC-αIIb-TM = target: T5, FITC-αIIb-TM (Homo sapiens, UniProt P08514); test: FRET heterodimeric association in micelles; type: binding; conditions: pH 7.5
# T5 construct: designated αIIb-TM, spanning residues Trp968 to Lys989 of αIIb was synthesized; made in house; host or cells: chemical peptide synthesis (no expression host)
# T5 sequence (P08514 999-1020 limits assumed): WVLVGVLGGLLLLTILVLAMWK
# Method: FRET provided a more direct measure of the αIIb-TM/anti-αIIb heterodimeric association. […] Because the appropriate parameter for the association of polypeptides in micelles is generally the polypeptide concentration in the detergent micellar phase rather than the bulk polypeptide concentration, dissociation constants are often given in mole fraction units (polypeptide/detergent ratios).
# Fluorescence resonance energy transfer (FRET) experiments were conducted on an ATF 105 spectrofluorometer (Aviv Biomedical, Inc., Lakewood, N.J.) using 0.3 cm path length cuvettes. […] Reference samples contain the same amount of FITC-αIIb-TM and non-labeled anti-αIIb to their corresponding FRET samples. Emission and excitation scans of the 1:1 mixture of FITC-αIIb-TM/coum-anti-αIIb were carried out to determine the optimal excitation and emission wavelengths. Excitation at 415 nm was selected. For the titration experiments in FIG. 2b, the emission at 500 nm was monitored. A slit width of 1.5 nm was used for both the excitation and emission. The signal and QC PMT high voltages were set at 737.3 V and 75.0 V, respectively. For the time-domain experiments, an experiment time of 600 seconds with 10 seconds of interval time and 10 seconds of average time was used. […] The fluorescence intensity values were used after correction of the inner filter effects using the standard method. […]
# T1 sequence (P17301 with tags, fused parts or gaps limits assumed): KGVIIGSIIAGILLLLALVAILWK
smiles,measurement,setting,value
CC[C@H](C)[C@H](NC(=O)[C@H](Cc1ccccc1)NC(=O)[C@H](Cc1ccccc1)NC(=O)[C@@H]1CCCN1C(=O)[C@H](CC(C)C)NC(=O)[C@H](CC(C)C)NC(=O)[C@H](CCSC)NC(=O)[C@@H](NC(=O)[C@H](Cc1ccc(O)cc1)NC(=O)[C@H](C)NC(=O)[C@H](CCCCN)NC(=O)[C@@H](N)CCCCN)C(C)C)C(=O)NCC(=O)N[C@@H](CC(C)C)C(=O)N[C@@H](CC(C)C)C(=O)N[C@@H](CC(C)C)C(=O)NCC(=O)N[C@@H](CC(C)C)C(=O)N[C@H](C(=O)N[C@@H](Cc1ccccc1)C(=O)NCC(=O)NCC(=O)N[C@@H](C)C(=O)N[C@@H](Cc1ccccc1)C(=O)N[C@@H](Cc1c[nH]c2ccccc12)C(=O)NCC(=O)N1CCC[C@H]1C(=O)N[C@@H](C)C(=O)N[C@@H](CCCNC(=N)N)C(=O)N[C@@H](Cc1c[nH]cn1)C(=O)N[C@@H](CC(C)C)C(=O)N[C@@H](CCCCN)C(=O)N[C@@H](CCCCN)C(N)=O)[C@@H](C)CC [anti-αIIb] (H-KKAYVMLLPFFIGLLLGLIFGGAFWGPARHLKK-NH2; N-terminus assumed),interaction with α2 TM domain,α2 TM domain,failed to significantly interact
same,interaction with β3 TM domain,β3 TM domain,failed to significantly interact
same,interaction with β1 TM domain,β1 TM domain,failed to significantly interact
same,induced aggregation in the presence of PGE1 and apyrase,"[1]; 1 μM peptide, 2 μM PGE1, 10 units/ml apyrase",only minimally affected
same,"induced aggregation in the presence of EDTA, Arg-Gly-Asp-Ser or antibody A2A9",[1]; agents that directly target αIIbβ3,inhibited
same,platelet aggregation response,[1]; gel-filtered human platelets,highly active
same,CAT signal of anti-αIIb-ToxR with αIIb as the DN partner,αIIb TM domain,strongly attenuated
same,apparent Kdiss for the αIIb-TM/anti-αIIb interaction,FITC-αIIb-TM,3.2±0.5×10^−4 mole fraction units
